From PubChem BioAssay (NCI)
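A five-concentration, 48-hour dose response in 96-well plates underlies each endpoint, interpolated linearly between surrounding concentrations. TGI denotes the concentration required for complete inhibition of growth.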

What was measured:
Test in all cases: growth of human tumour cells (NCI), 48 h
786-0 renal = system: 786-0 renal
A498 renal = system: A498 renal
A549 NSCLC = system: A549 NSCLC
ACHN renal = system: ACHN renal
CAKI-1 renal = system: CAKI-1 renal
CCRF-CEM leukemia = system: CCRF-CEM leukemia
COLO 205 colon = system: COLO 205 colon
DLD-1 colon = system: DLD-1 colon
DMS 114 small cell lung = system: DMS 114 small cell lung
DMS 273 small cell lung = system: DMS 273 small cell lung
EKVX NSCLC = system: EKVX NSCLC
HCC-2998 colon = system: HCC-2998 colon
HCT-116 colon = system: HCT-116 colon
HCT-15 colon = system: HCT-15 colon
HL-60(TB) leukemia = system: HL-60(TB) leukemia
HOP-18 NSCLC = system: HOP-18 NSCLC
HOP-62 NSCLC = system: HOP-62 NSCLC
HT29 colon = system: HT29 colon
IGROV1 ovarian = system: IGROV1 ovarian
K-562 leukemia = system: K-562 leukemia
KM12 colon = system: KM12 colon
KM20L2 colon = system: KM20L2 colon
LOX IMVI melanoma = system: LOX IMVI melanoma
LXFL 529 NSCLC = system: LXFL 529 NSCLC
M14 melanoma = system: M14 melanoma
M19-MEL melanoma = system: M19-MEL melanoma
MALME-3M melanoma = system: MALME-3M melanoma
MOLT-4 leukemia = system: MOLT-4 leukemia
NCI-H226 lung = system: NCI-H226 lung
NCI-H23 lung = system: NCI-H23 lung
NCI-H460 lung = system: NCI-H460 lung
NCI-H522 lung = system: NCI-H522 lung
OVCAR-3 ovarian = system: OVCAR-3 ovarian
OVCAR-4 ovarian = system: OVCAR-4 ovarian
OVCAR-5 ovarian = system: OVCAR-5 ovarian
OVCAR-8 ovarian = system: OVCAR-8 ovarian
RPMI-8226 leukemia = system: RPMI-8226 leukemia
RXF 393 renal = system: RXF 393 renal
SF-268 CNS = system: SF-268 CNS
SF-295 CNS = system: SF-295 CNS
SK-MEL-2 melanoma = system: SK-MEL-2 melanoma
SK-MEL-28 melanoma = system: SK-MEL-28 melanoma
SK-MEL-5 melanoma = system: SK-MEL-5 melanoma
SK-OV-3 ovarian = system: SK-OV-3 ovarian
SN12C renal = system: SN12C renal
SNB-19 CNS = system: SNB-19 CNS
SNB-75 CNS = system: SNB-75 CNS
SNB-78 CNS = system: SNB-78 CNS
SR leukemia = system: SR leukemia
SW-620 colon = system: SW-620 colon
TK-10 renal = system: TK-10 renal
U251 CNS = system: U251 CNS
UACC-257 melanoma = system: UACC-257 melanoma
UACC-62 melanoma = system: UACC-62 melanoma
UO-31 renal = system: UO-31 renal
HOP-92 NSCLC = system: HOP-92 NSCLC
SF-539 CNS = system: SF-539 CNS
XF 498 CNS = system: XF 498 CNS

COc1ccc(OC)c2c3c(ccc12)C(c1ccccc1)OC3=O (centres undefined)
TGI (786-0 renal): > 100 µM | TGI (A498 renal): > 100 µM | TGI (A549 NSCLC): > 100 µM | TGI (ACHN renal): > 100 µM | TGI (CAKI-1 renal): > 100 µM | TGI (CCRF-CEM leukemia): > 100 µM | TGI (COLO 205 colon): > 100 µM | TGI (DLD-1 colon): > 100 µM | TGI (DMS 114 small cell lung): > 100 µM | TGI (DMS 273 small cell lung): > 100 µM | TGI (EKVX NSCLC): > 100 µM | TGI (HCC-2998 colon): > 100 µM | TGI (HCT-116 colon): > 100 µM | TGI (HCT-15 colon): > 100 µM | TGI (HL-60(TB) leukemia): > 100 µM | TGI (HOP-18 NSCLC): > 100 µM | TGI (HOP-62 NSCLC): > 100 µM | TGI (HT29 colon): > 100 µM | TGI (IGROV1 ovarian): > 100 µM | TGI (K-562 leukemia): > 100 µM | TGI (KM12 colon): > 100 µM | TGI (KM20L2 colon): > 100 µM | TGI (LOX IMVI melanoma): > 100 µM | TGI (LXFL 529 NSCLC): > 100 µM | TGI (M14 melanoma): > 100 µM | TGI (M19-MEL melanoma): > 100 µM | TGI (MALME-3M melanoma): > 100 µM | TGI (MOLT-4 leukemia): 99.7 µM | TGI (NCI-H226 lung): > 100 µM | TGI (NCI-H23 lung): > 100 µM | TGI (NCI-H460 lung): > 100 µM | TGI (NCI-H522 lung): > 100 µM | TGI (OVCAR-3 ovarian): 79.9 µM | TGI (OVCAR-4 ovarian): > 100 µM | TGI (OVCAR-5 ovarian): > 100 µM | TGI (OVCAR-8 ovarian): > 100 µM | TGI (RPMI-8226 leukemia): > 100 µM | TGI (RXF 393 renal): > 100 µM | TGI (SF-268 CNS): > 100 µM | TGI (SF-295 CNS): > 100 µM | TGI (SK-MEL-2 melanoma): > 100 µM | TGI (SK-MEL-28 melanoma): > 100 µM | TGI (SK-MEL-5 melanoma): > 100 µM | TGI (SK-OV-3 ovarian): > 100 µM | TGI (SN12C renal): > 100 µM | TGI (SNB-19 CNS): > 100 µM | TGI (SNB-75 CNS): > 100 µM | TGI (SNB-78 CNS): 64.9 µM | TGI (SR leukemia): > 100 µM | TGI (SW-620 colon): > 100 µM | TGI (TK-10 renal): > 100 µM | TGI (U251 CNS): > 100 µM | TGI (UACC-257 melanoma): > 100 µM | TGI (UACC-62 melanoma): > 100 µM | TGI (UO-31 renal): > 100 µM

COC(=O)/C(=N\NC(N)=S)C(C#N)c1ccccc1 (centres undefined)
TGI (786-0 renal): > 100 µM | TGI (A498 renal): > 100 µM | TGI (A549 NSCLC): > 100 µM | TGI (ACHN renal): > 100 µM | TGI (CCRF-CEM leukemia): > 100 µM | TGI (COLO 205 colon): > 100 µM | TGI (DLD-1 colon): > 100 µM | TGI (DMS 114 small cell lung): > 100 µM | TGI (EKVX NSCLC): > 100 µM | TGI (HCC-2998 colon): > 100 µM | TGI (HCT-116 colon): > 100 µM | TGI (HCT-15 colon): > 100 µM | TGI (HL-60(TB) leukemia): > 100 µM | TGI (HOP-62 NSCLC): > 100 µM | TGI (HOP-92 NSCLC): > 100 µM | TGI (HT29 colon): > 100 µM | TGI (IGROV1 ovarian): > 100 µM | TGI (K-562 leukemia): > 100 µM | TGI (KM12 colon): > 100 µM | TGI (KM20L2 colon): > 100 µM | TGI (LOX IMVI melanoma): > 100 µM | TGI (LXFL 529 NSCLC): > 100 µM | TGI (M14 melanoma): > 100 µM | TGI (M19-MEL melanoma): > 100 µM | TGI (MALME-3M melanoma): > 100 µM | TGI (MOLT-4 leukemia): > 100 µM | TGI (NCI-H226 lung): > 100 µM | TGI (NCI-H23 lung): > 100 µM | TGI (NCI-H460 lung): > 100 µM | TGI (NCI-H522 lung): > 100 µM | TGI (OVCAR-3 ovarian): > 100 µM | TGI (OVCAR-4 ovarian): > 100 µM | TGI (OVCAR-5 ovarian): > 100 µM | TGI (OVCAR-8 ovarian): > 100 µM | TGI (RPMI-8226 leukemia): > 100 µM | TGI (RXF 393 renal): > 100 µM | TGI (SF-268 CNS): > 100 µM | TGI (SF-295 CNS): > 100 µM | TGI (SF-539 CNS): > 100 µM | TGI (SK-MEL-2 melanoma): > 100 µM | TGI (SK-MEL-28 melanoma): > 100 µM | TGI (SK-MEL-5 melanoma): > 100 µM | TGI (SK-OV-3 ovarian): > 100 µM | TGI (SN12C renal): > 100 µM | TGI (SNB-19 CNS): > 100 µM | TGI (SNB-75 CNS): > 100 µM | TGI (SNB-78 CNS): > 100 µM | TGI (SW-620 colon): > 100 µM | TGI (TK-10 renal): > 100 µM | TGI (U251 CNS): > 100 µM | TGI (UACC-257 melanoma): > 100 µM | TGI (UACC-62 melanoma): > 100 µM | TGI (UO-31 renal): > 100 µM | TGI (XF 498 CNS): > 100 µM
